Test results published in PubChem BioAssay (NCI).
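Each compound was tested at five concentrations against cells in 96-well plates for 48 hours. TGI: total growth inhibition.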

Experiments:
Assay in all cases: NCI anticancer screen, dose series, 48 h
[1] = test system: IGROV1 ovarian
[2] = test system: SNB-75 CNS
[3] = test system: U251 CNS
[4] = test system: UO-31 renal
[5] = test system: HL-60(TB) leukemia
[6] = test system: DMS 273 small cell lung
[7] = test system: UACC-62 melanoma
[8] = test system: A549 NSCLC
[9] = test system: OVCAR-4 ovarian
[10] = test system: M19-MEL melanoma
[11] = test system: HCT-116 colon
[12] = test system: SR leukemia
[13] = test system: TK-10 renal
[14] = test system: HOP-92 NSCLC
[15] = test system: HCT-15 colon
[16] = test system: SF-539 CNS
[17] = test system: NCI-H522 lung
[18] = test system: SK-MEL-28 melanoma
[19] = test system: EKVX NSCLC
[20] = test system: 786-0 renal
[21] = test system: SK-MEL-2 melanoma
[22] = test system: OVCAR-3 ovarian
[23] = test system: SK-MEL-5 melanoma
[24] = test system: SN12C renal
[25] = test system: HOP-18 NSCLC
[26] = test system: UACC-257 melanoma
[27] = test system: CAKI-1 renal
[28] = test system: DMS 114 small cell lung
[29] = test system: SF-295 CNS
[30] = test system: MOLT-4 leukemia
[31] = test system: KM20L2 colon
[32] = test system: SK-OV-3 ovarian
[33] = test system: MALME-3M melanoma
[34] = test system: RXF 393 renal
[35] = test system: SNB-78 CNS
[36] = test system: SNB-19 CNS
[37] = test system: OVCAR-8 ovarian
[38] = test system: LOX IMVI melanoma
[39] = test system: A498 renal
[40] = test system: CCRF-CEM leukemia
[41] = test system: LXFL 529 NSCLC
[42] = test system: RPMI-8226 leukemia
[43] = test system: NCI-H23 lung
[44] = test system: NCI-H460 lung
[45] = test system: SW-620 colon
[46] = test system: SF-268 CNS
[47] = test system: M14 melanoma
[48] = test system: K-562 leukemia
[49] = test system: ACHN renal
[50] = test system: COLO 205 colon
[51] = test system: HCC-2998 colon
[52] = test system: NCI-H226 lung
[53] = test system: DLD-1 colon
[54] = test system: HT29 colon
[55] = test system: OVCAR-5 ovarian
[56] = test system: HOP-62 NSCLC
[57] = test system: KM12 colon
[58] = test system: XF 498 CNS

Q: With `CCCC(=O)Oc1ccc(/C=N/NC(N)=S)nc1` as the molecule, how does the TGI [1] read?
A: > 100 µM

Q: What about the TGI [2] of the same molecule?
A: > 100 µM

Q: What about the TGI [3] of the same molecule?
A: > 100 µM

Q: And the TGI [4]?
A: > 100 µM

Q: And the TGI [5]?
A: > 100 µM

Q: What about the TGI [6] of the same molecule?
A: > 100 µM

Q: What about the TGI [7] of the same molecule?
A: > 100 µM

Q: What about the TGI [8] of the same molecule?
A: > 100 µM

Q: What about the TGI [9] of the same molecule?
A: > 100 µM

Q: What about the TGI [10] of the same molecule?
A: > 100 µM

Q: And the TGI [11]?
A: > 100 µM

Q: And the TGI [12]?
A: > 100 µM

Q: What about the TGI [13] of the same molecule?
A: > 100 µM

Q: What about the TGI [14] of the same molecule?
A: > 100 µM

Q: And the TGI [15]?
A: > 100 µM

Q: What about the TGI [16] of the same molecule?
A: > 100 µM

Q: And the TGI [17]?
A: > 100 µM

Q: And the TGI [18]?
A: > 100 µM

Q: And the TGI [19]?
A: > 100 µM

Q: What about the TGI [20] of the same molecule?
A: > 100 µM

Q: What about the TGI [21] of the same molecule?
A: > 100 µM

Q: And the TGI [22]?
A: > 100 µM

Q: And the TGI [23]?
A: > 100 µM

Q: And the TGI [24]?
A: > 100 µM

Q: And the TGI [25]?
A: > 100 µM

Q: And the TGI [26]?
A: > 100 µM

Q: What about the TGI [27] of the same molecule?
A: > 100 µM

Q: And the TGI [28]?
A: > 100 µM

Q: What about the TGI [29] of the same molecule?
A: > 100 µM

Q: And the TGI [30]?
A: > 100 µM

Q: And the TGI [31]?
A: > 100 µM

Q: What about the TGI [32] of the same molecule?
A: > 100 µM

Q: What about the TGI [33] of the same molecule?
A: > 100 µM

Q: And the TGI [34]?
A: > 100 µM

Q: What about the TGI [35] of the same molecule?
A: > 100 µM

Q: And the TGI [36]?
A: > 100 µM

Q: What about the TGI [37] of the same molecule?
A: > 100 µM

Q: And the TGI [38]?
A: > 100 µM

Q: And the TGI [39]?
A: > 100 µM

Q: What about the TGI [40] of the same molecule?
A: > 100 µM

Q: And the TGI [41]?
A: > 100 µM

Q: What about the TGI [42] of the same molecule?
A: > 100 µM

Q: And the TGI [43]?
A: > 100 µM

Q: And the TGI [44]?
A: > 100 µM

Q: What about the TGI [45] of the same molecule?
A: > 100 µM

Q: What about the TGI [46] of the same molecule?
A: > 100 µM

Q: And the TGI [47]?
A: > 100 µM

Q: And the TGI [48]?
A: > 100 µM

Q: What about the TGI [49] of the same molecule?
A: > 100 µM

Q: What about the TGI [50] of the same molecule?
A: > 100 µM

Q: And the TGI [51]?
A: > 100 µM

Q: What about the TGI [52] of the same molecule?
A: > 100 µM

Q: What about the TGI [53] of the same molecule?
A: > 100 µM

Q: What about the TGI [54] of the same molecule?
A: > 100 µM

Q: What about the TGI [55] of the same molecule?
A: > 100 µM

Q: And the TGI [56]?
A: > 100 µM

Q: And the TGI [57]?
A: > 100 µM

Q: Which results are given for `Cn1nc(-c2ccccc2)c2c(/C=C/c3ccc(F)cc3)onc2c1=O`?
A: TGI [1]: > 100 µM; TGI [3]: > 100 µM; TGI [4]: > 100 µM; TGI [5]: > 100 µM; TGI [58]: > 100 µM; TGI [6]: > 100 µM; TGI [7]: > 100 µM; TGI [8]: > 100 µM; TGI [10]: > 100 µM; TGI [11]: > 100 µM; TGI [13]: > 100 µM; TGI [14]: > 100 µM; TGI [15]: > 100 µM; TGI [16]: > 100 µM; TGI [17]: 51.1 µM; TGI [18]: > 100 µM; TGI [19]: > 100 µM; TGI [20]: > 100 µM; TGI [23]: > 100 µM; TGI [24]: > 100 µM; TGI [25]: > 100 µM; TGI [27]: 66 µM; TGI [30]: > 100 µM; TGI [31]: > 100 µM; TGI [32]: > 100 µM; TGI [34]: 70.7 µM; TGI [37]: > 100 µM; TGI [38]: > 100 µM; TGI [40]: > 100 µM; TGI [41]: > 100 µM; TGI [42]: > 100 µM; TGI [43]: > 100 µM; TGI [44]: > 100 µM; TGI [45]: > 100 µM; TGI [46]: > 100 µM; TGI [47]: > 100 µM; TGI [48]: > 100 µM; TGI [49]: > 100 µM; TGI [50]: > 100 µM; TGI [53]: > 100 µM; TGI [54]: > 100 µM; TGI [56]: > 100 µM

Q: For `Clc1ccc(-c2nnc(-c3nn(-c4ccccc4)c4nc5ccccc5nc34)o2)cc1`, which TGI [1] is on record?
A: > 100 µM

Q: And the TGI [2]?
A: > 100 µM

Q: What about the TGI [3] of the same molecule?
A: > 100 µM

Q: What about the TGI [4] of the same molecule?
A: > 100 µM

Q: And the TGI [5]?
A: 80.5 µM

Q: And the TGI [58]?
A: 64.6 µM

Q: What about the TGI [6] of the same molecule?
A: > 100 µM

Q: And the TGI [7]?
A: > 100 µM

Q: And the TGI [8]?
A: > 100 µM

Q: And the TGI [9]?
A: > 100 µM

Q: What about the TGI [10] of the same molecule?
A: > 100 µM

Q: And the TGI [11]?
A: > 100 µM

Q: And the TGI [13]?
A: > 100 µM

Q: What about the TGI [15] of the same molecule?
A: > 100 µM

Q: And the TGI [16]?
A: > 100 µM

Q: And the TGI [17]?
A: > 100 µM

Q: And the TGI [18]?
A: > 100 µM

Q: What about the TGI [19] of the same molecule?
A: > 100 µM

Q: What about the TGI [20] of the same molecule?
A: > 100 µM

Q: And the TGI [21]?
A: > 100 µM

Q: And the TGI [22]?
A: > 100 µM

Q: What about the TGI [23] of the same molecule?
A: 32.3 µM

Q: And the TGI [24]?
A: > 100 µM

Q: What about the TGI [25] of the same molecule?
A: > 100 µM

Q: And the TGI [26]?
A: > 100 µM

Q: And the TGI [27]?
A: > 100 µM

Q: What about the TGI [28] of the same molecule?
A: > 100 µM

Q: And the TGI [29]?
A: > 100 µM

Q: And the TGI [30]?
A: 81.6 µM

Q: And the TGI [31]?
A: > 100 µM

Q: What about the TGI [32] of the same molecule?
A: > 100 µM

Q: What about the TGI [33] of the same molecule?
A: > 100 µM

Q: And the TGI [34]?
A: > 100 µM

Q: What about the TGI [35] of the same molecule?
A: > 100 µM

Q: And the TGI [36]?
A: > 100 µM

Q: What about the TGI [37] of the same molecule?
A: > 100 µM

Q: And the TGI [38]?
A: > 100 µM

Q: And the TGI [40]?
A: 80.8 µM

Q: And the TGI [41]?
A: > 100 µM

Q: What about the TGI [42] of the same molecule?
A: > 100 µM

Q: What about the TGI [43] of the same molecule?
A: > 100 µM

Q: What about the TGI [44] of the same molecule?
A: > 100 µM

Q: What about the TGI [45] of the same molecule?
A: > 100 µM

Q: What about the TGI [46] of the same molecule?
A: > 100 µM

Q: What about the TGI [47] of the same molecule?
A: > 100 µM

Q: What about the TGI [48] of the same molecule?
A: > 100 µM

Q: And the TGI [49]?
A: > 100 µM

Q: And the TGI [50]?
A: > 100 µM

Q: What about the TGI [51] of the same molecule?
A: > 100 µM

Q: What about the TGI [52] of the same molecule?
A: > 100 µM

Q: What about the TGI [53] of the same molecule?
A: > 100 µM

Q: What about the TGI [54] of the same molecule?
A: > 100 µM

Q: What about the TGI [55] of the same molecule?
A: > 100 µM

Q: And the TGI [56]?
A: > 100 µM

Q: What about the TGI [57] of the same molecule?
A: > 100 µM

Q: What does the source list for `COC(=O)CC(C(C(=O)OCc1ccccc1)C(C)O)N1C(=O)OCC1c1ccccc1` (centres undefined)?
A: TGI [1]: > 100 µM; TGI [2]: 89.8 µM; TGI [3]: > 100 µM; TGI [4]: 90.6 µM; TGI [5]: > 100 µM; TGI [58]: > 100 µM; TGI [6]: > 100 µM; TGI [7]: > 100 µM; TGI [8]: > 100 µM; TGI [9]: > 100 µM; TGI [10]: > 100 µM; TGI [11]: > 100 µM; TGI [12]: > 100 µM; TGI [13]: > 100 µM; TGI [15]: > 100 µM; TGI [16]: > 100 µM; TGI [18]: > 100 µM; TGI [19]: > 100 µM; TGI [20]: > 100 µM; TGI [21]: > 100 µM; TGI [22]: > 100 µM; TGI [23]: > 100 µM; TGI [24]: > 100 µM; TGI [26]: > 100 µM; TGI [28]: > 100 µM; TGI [29]: > 100 µM; TGI [30]: > 100 µM; TGI [31]: > 100 µM; TGI [33]: > 100 µM; TGI [34]: > 100 µM; TGI [36]: > 100 µM; TGI [37]: > 100 µM; TGI [38]: > 100 µM; TGI [39]: > 100 µM; TGI [40]: > 100 µM; TGI [41]: > 100 µM; TGI [42]: > 100 µM; TGI [43]: > 100 µM; TGI [44]: > 100 µM; TGI [45]: > 100 µM; TGI [46]: > 100 µM; TGI [47]: > 100 µM; TGI [48]: > 100 µM; TGI [49]: > 100 µM; TGI [50]: > 100 µM; TGI [51]: > 100 µM; TGI [52]: > 100 µM; TGI [53]: > 100 µM; TGI [54]: > 100 µM; TGI [56]: > 100 µM
